Measurements taken from PMC2873402, “Discovery of High-Affinity Protein Binding Ligands – Backwards” (PLoS ONE, 2010).
Like-named read-outs stand apart in the source and are kept apart here. Bridge positions count the residues as written; N and C are the ends. Ends that are not written are not given here. I, II: the chains in the order shown. * marks the point of attachment. StBu = CC(C)(C)S*

What was measured:
Set-up in all cases: purchased Life Technologies
AKT1 [1] = biological target: T1, AKT1 (Homo sapiens, UniProt P31749); assay: SPR screening against immobilized AKT1; type: binding; settings: 100 nM synbody, Biacore T-100, CM5 amine coupling, 25°C immobilization, 90 s association, 240 s dissociation
Method: The synbody (100nM concentration) was screened by Surface Plasmon Resonance (SPR) against immobilized AKT1 and GRP58 on a Biacore T-100 SPR. The synbody appeared to have high affinity for AKT1 and low affinity for GRP58 (Figure S2). To accurately determine the binding kinetics of the synbody-AKT1 complex, several concentrations of synbody were injected over a low-density surface of biotin-labeled AKT1 captured on a Neutratvidin SPR chip using a Biacore A-100.
SPR screening of the synbody against AKT1 and GRP58 was performed on a Biacore T-100 (GE Healthcare, Piscataway, NJ, USA). The series S sensor chip CM5, amine coupling reagents and HBS-EP were obtained from GE Healthcare. A standard amine immobilization protocol was performed at 25°C using NaHCO3 (10mM in 150mM NaCl, pH 4.5) as the immobilization buffer. The CM-5 dextran chip was activated by a 10 minute injection of a freshly prepared 1∶1 solution of 400 mM 1-ethyl-3-(3-dimethylaminopropyl)-carbodimide (EDC): 100 mM N-hydroxysuccimide (NHS) in water. The NHS-carboxy groups of the dextran surface were treated with a solution of AKT1 or GRP58 (25 µg/ml) in sodium acetate (pH 5.0) for 8 mins at a flow rate of 10 µl/min. Any residual active sites were then quenched by a 5 min pulse of ethylene diamine (1M, pH 8.5). […]

AKT1 [2] = biological target: T1, AKT1; assay: SPR determination of Kd / binding kinetics on AKT1
Method: To a solution of AKT1 (25µg, 4.16×10^−10 moles, 1.0 equiv.) in 50mM Na2CO3 in 150mM NaCl, pH 9.0 (200 µl), was added a solution of NHS-LC-LC-Biotin (Thermo Scientific) (9.4 µl, 8.32×10^−10 moles, 2.0 equiv.) in DMSO. The reaction was kept on ice at 0°C with frequent agitation for 2 hours, before the mixture was transferred to a 10 kDa Millipore Microcon filter and diluted with HBS-N (200 µl). The excess biotin was removed by spinning the filter at 12,000 G until the volume on top of the filter had been reduced to 0.25 the original volume. The retentate was washed with an additional 200 µl of HBS-N and spun for a further 15 minutes. The filter was then flipped over and the protein recovered (15 µg, 60%). After filtration, an appropriate volume of 10× HBS-N was added to the sample to increase the HBS-N concentration to a 1× equivalent.
Determination of the binding kinetics of the synbody on AKT1 was performed on a Biacore A-100. The series S sensor chip CM5, amine coupling reagents and HBS-EP were obtained from GE Healthcare. A standard amine immobilization protocol was performed at 25°C using NaHCO3 (10mM in 150mM NaCl, pH 4.5) as the immobilization buffer. Spots 1,2 and 3 on each of the four flow cells of the CM-5 dextran chip were activated by a 10 minute injection of a freshly prepared 1∶1 solution of 40 0mM EDC : 100 mM NHS in water. The NHS-carboxy groups of spot 1 of the dextran surface were treated with a solution of neutravidin (50 µg/ml) in sodium acetate (pH 5.0) for 8 mins at a flow rate of 10 µl/min. Any residual active sites were then quenched by a 5 min pulse of ethylene diamine (1M, pH 8.5). Similarly neutravidin was coupled to spots 2 and 3 via a 12 and 16 min injection cycle respectively, followed by quenching. An additionally 7 min injection of ethylene diamine was then pulsed over spots 1–3 to ensure no activated sites remained. […]
For high-resolution kinetics, biotin-tagged AKT1 was captured in multiple spot densities with Rmax's ranging from 20–100 RUs. […] Association and dissociation were monitored for 3 and 16 min, respectively. […]

AKT1 [3] = biological target: T1, AKT1; assay: IP of AKT1 from solution, Western Blot; type: binding; settings: synbody with C-terminal Lys-Biotin on streptavidin magnetic beads, 89 nM to 0.7 nM AKT1, overnight, 4°C
Method: The synbody was tested for its ability to bind native protein in solution. A variant of the synbody was prepared in which the C-terminal Cys was replaced with a Lys-Biotin. The synbody was used in an immunoprecipitation (IP) experiment in which it was bound to streptavidin magnetic beads and incubated overnight with 89 nM to 0.7 nM solutions of AKT1. The beads were washed extensively and the bound protein was eluted. Samples were run on a SDS-PAGE gel and detected by Western Blot with an anti-AKT1 monoclonal antibody (Figure 3B).
For all IP experiments, either a 1 µM or 250 nM solution of biotin-conjugated synbody was captured on 20 µL of streptavidin coated paramagnetic M-280 Dynabeads (Life Technologies) according to the manufacturers protocol. Synbody coated beads were washed five times with 1 mL of 100 mM phosphate buffered saline containing 0.05% Tween-20 (PBST) and incubated overnight at 4°C with shaking in the desired amount of target protein in A549 cell lysate. For Kd determination experiments, serial dilutions of AKT1 or ABL1 were prepared in binding buffer. After binding, beads were washed five times with 1 mL of PBST and heated at 70°C in 20 µL of 1× LDS loading buffer (Invitrogen) for 10 minutes. The samples were analyzed by SDS-PAGE gel with Western Blot detection using the appropriate antibody and imaged on a GE Healthcare Typhoon Trio.

T1 sequence (P31749 whole entry): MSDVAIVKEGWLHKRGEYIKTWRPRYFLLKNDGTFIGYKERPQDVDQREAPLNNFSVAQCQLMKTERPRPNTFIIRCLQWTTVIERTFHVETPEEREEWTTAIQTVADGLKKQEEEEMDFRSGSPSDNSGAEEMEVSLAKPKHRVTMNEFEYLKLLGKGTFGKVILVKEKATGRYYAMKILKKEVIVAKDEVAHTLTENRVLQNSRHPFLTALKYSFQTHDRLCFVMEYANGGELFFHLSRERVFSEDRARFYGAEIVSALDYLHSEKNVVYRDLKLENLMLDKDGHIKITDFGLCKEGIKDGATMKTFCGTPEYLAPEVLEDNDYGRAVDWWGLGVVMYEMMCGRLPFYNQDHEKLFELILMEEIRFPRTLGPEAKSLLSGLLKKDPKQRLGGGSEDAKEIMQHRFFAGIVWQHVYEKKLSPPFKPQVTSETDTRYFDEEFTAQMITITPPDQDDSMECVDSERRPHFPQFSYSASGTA

- affinity for AKT1 by SPR screening (AKT1 [1]): high affinity
- kon (AKT1 [2]; Biacore A-100, biotin-labeled AKT1 on neutravidin, synbody 25 nM to 0.78 nM, 1:1 binding model, read-out: association rate, ka): 200000 M⁻¹ s⁻¹
- koff (AKT1 [2]; Biacore A-100, biotin-labeled AKT1 on neutravidin, synbody 25 nM to 0.78 nM, 1:1 binding model, read-out: dissociation rate, kd): 0.0003 s⁻¹
- koff (AKT1 [2]; Figure 3A, 12.5 and 6.25 nM synbody, Biacore A-100, 1:1 binding model, read-out: koff): 0.000295 s⁻¹
- IP of AKT1 from solution (AKT1 [3]): bound AKT1 from solution
Substance: I: AHKVVPQRQIRHAYNRYGSGKC(StBu)-NH2 / II: FRGWAHIFFGPHVIYRGGSG (amide I:21-II:C) [synbody]
